In publication PMC8518639 (Chemmedchem, 2021):

How the values were obtained:
[1] = Caco-2 cell permeability assay; type: in vitro ADME; conditions: human; for Papp at 90 min, 10 μM: Caco-2, Papp
[2] = test system: Caco‐2 cells; experiment: Caco-2 cell permeability assay; type: in vitro ADME; conditions: Caco‐2, 10 μM
[3] = molecular target: MLL4 complex (Homo sapiens, UniProt Q9UMN6); experiment: HotSpot Methyltransferase Profiling assay, MLL4 complex; type: biochemical
[4] = molecular target: SETD2 (Homo sapiens, UniProt Q9BYW2); experiment: HotSpot Methyltransferase Profiling assay, SETD2; type: biochemical
[5] = molecular target: PRDM9 (Homo sapiens, UniProt Q9NQV7); experiment: HotSpot Methyltransferase Profiling assay, PRDM9; type: biochemical
Chain of PRDM9 (Q9NQV7 whole entry): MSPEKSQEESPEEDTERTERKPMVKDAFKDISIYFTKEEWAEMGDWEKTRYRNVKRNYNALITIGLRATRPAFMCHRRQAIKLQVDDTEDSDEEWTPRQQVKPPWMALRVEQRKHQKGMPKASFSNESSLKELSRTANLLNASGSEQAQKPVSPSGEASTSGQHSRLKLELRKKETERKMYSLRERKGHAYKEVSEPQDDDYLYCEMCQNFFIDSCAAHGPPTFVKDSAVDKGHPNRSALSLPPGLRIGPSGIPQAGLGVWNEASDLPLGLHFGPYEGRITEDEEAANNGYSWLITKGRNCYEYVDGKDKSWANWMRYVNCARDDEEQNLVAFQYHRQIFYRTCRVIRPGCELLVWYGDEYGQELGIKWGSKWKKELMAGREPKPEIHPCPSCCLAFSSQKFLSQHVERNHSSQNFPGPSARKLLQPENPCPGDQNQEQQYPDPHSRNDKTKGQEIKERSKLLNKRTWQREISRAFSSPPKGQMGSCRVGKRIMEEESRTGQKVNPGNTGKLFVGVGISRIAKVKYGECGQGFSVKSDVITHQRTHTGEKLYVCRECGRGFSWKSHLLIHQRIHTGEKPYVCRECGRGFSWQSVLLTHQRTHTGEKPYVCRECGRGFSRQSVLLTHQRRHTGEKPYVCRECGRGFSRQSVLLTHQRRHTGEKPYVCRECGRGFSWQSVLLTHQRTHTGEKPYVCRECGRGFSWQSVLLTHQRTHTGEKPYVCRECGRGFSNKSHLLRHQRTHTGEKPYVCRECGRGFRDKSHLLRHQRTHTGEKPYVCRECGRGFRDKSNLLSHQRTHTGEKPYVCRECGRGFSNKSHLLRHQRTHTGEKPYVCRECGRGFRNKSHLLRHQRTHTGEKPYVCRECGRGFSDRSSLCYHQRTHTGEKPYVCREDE

Chain of SETD2 (Q9BYW2 whole entry): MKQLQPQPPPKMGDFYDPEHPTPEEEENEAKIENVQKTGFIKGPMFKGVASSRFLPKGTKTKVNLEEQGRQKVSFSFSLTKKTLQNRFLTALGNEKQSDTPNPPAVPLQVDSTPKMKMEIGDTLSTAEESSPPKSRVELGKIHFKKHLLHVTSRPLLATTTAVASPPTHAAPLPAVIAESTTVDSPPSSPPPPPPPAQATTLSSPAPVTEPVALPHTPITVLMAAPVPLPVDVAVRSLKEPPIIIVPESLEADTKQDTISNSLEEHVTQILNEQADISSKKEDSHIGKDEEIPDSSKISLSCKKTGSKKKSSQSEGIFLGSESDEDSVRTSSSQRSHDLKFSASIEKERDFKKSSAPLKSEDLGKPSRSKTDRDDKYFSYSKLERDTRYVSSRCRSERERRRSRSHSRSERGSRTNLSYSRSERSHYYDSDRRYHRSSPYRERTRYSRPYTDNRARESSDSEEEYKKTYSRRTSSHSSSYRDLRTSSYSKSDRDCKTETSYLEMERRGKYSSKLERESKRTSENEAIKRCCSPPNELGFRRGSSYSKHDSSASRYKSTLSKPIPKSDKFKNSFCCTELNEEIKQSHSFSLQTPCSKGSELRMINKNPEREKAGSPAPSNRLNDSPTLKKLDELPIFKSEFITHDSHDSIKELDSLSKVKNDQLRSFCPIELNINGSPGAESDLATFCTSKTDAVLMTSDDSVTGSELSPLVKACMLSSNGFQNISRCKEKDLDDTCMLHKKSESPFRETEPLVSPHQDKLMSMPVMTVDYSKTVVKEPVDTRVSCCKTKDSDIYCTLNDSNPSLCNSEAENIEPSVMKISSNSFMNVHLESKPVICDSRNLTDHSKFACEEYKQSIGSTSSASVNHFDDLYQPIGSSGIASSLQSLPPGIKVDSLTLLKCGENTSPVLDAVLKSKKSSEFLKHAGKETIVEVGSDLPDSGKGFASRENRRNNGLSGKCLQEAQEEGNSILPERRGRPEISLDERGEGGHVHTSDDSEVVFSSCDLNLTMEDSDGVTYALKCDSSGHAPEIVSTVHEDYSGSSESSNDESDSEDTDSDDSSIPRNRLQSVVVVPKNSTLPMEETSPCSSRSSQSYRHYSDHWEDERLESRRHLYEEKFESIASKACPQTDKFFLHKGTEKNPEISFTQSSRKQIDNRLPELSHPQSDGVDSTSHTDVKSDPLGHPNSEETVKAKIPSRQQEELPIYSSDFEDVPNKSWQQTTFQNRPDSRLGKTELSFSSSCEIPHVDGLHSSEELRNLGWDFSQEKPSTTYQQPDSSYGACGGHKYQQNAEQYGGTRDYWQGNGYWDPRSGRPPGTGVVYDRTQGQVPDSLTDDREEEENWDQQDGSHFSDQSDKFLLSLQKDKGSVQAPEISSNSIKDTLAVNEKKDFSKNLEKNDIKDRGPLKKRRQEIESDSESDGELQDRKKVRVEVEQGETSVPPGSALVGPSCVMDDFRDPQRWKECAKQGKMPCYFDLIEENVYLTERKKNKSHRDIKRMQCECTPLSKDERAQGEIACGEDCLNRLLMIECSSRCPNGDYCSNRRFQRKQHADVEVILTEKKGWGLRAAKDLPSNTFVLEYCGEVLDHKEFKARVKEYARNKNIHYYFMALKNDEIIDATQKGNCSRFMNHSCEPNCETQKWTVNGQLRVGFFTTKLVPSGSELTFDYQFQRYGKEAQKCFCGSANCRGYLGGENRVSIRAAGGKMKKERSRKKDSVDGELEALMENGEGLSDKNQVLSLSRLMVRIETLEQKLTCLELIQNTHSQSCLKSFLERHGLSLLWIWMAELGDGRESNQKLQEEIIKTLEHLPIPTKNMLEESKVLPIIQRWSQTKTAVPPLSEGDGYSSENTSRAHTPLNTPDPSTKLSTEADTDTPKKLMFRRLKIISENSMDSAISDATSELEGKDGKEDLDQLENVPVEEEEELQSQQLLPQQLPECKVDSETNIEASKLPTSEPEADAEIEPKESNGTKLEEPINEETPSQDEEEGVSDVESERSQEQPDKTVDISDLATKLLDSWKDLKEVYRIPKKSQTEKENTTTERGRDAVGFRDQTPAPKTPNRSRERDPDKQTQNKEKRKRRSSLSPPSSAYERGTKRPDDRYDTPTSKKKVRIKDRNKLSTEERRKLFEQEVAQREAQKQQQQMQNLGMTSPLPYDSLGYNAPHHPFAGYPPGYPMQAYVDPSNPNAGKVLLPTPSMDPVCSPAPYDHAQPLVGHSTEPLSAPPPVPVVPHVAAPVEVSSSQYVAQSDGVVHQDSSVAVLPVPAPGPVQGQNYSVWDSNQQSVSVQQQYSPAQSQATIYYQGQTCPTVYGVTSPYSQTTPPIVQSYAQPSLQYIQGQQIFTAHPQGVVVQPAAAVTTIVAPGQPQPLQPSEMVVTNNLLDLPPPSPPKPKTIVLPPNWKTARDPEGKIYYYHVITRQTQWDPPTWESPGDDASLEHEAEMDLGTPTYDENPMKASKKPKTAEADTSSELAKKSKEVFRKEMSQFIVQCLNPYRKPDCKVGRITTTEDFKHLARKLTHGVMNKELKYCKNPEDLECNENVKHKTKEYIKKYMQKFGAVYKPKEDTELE
Chain of MLL4 complex (Q9UMN6 2490-2715): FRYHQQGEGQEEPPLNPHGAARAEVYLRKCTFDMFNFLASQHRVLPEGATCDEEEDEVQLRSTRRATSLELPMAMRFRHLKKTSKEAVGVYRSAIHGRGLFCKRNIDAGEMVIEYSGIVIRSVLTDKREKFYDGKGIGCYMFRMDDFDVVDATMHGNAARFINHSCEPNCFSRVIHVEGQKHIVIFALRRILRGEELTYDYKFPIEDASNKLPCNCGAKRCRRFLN
Chain of MLL4 complex (Q9C005 whole entry, further chain): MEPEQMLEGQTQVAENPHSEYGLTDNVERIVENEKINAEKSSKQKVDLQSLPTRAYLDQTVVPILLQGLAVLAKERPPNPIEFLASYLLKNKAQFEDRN
Chain of MLL4 complex (Q15291 whole entry, further chain): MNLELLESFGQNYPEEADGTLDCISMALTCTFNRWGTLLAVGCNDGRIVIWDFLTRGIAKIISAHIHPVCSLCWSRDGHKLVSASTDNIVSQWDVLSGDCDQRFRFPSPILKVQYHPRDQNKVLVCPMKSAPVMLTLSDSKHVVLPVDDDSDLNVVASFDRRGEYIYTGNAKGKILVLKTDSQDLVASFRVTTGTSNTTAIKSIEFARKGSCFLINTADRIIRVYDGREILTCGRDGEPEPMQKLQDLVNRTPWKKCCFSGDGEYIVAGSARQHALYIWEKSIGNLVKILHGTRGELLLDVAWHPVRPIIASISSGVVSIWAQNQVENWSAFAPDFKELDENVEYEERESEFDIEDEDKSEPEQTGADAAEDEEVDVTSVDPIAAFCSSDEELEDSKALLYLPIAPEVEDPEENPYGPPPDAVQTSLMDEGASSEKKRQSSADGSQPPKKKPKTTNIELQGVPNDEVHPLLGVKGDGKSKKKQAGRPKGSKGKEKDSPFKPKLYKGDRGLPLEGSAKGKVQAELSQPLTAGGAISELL
Chain of MLL4 complex (Q9UBL3 96-628, further chain): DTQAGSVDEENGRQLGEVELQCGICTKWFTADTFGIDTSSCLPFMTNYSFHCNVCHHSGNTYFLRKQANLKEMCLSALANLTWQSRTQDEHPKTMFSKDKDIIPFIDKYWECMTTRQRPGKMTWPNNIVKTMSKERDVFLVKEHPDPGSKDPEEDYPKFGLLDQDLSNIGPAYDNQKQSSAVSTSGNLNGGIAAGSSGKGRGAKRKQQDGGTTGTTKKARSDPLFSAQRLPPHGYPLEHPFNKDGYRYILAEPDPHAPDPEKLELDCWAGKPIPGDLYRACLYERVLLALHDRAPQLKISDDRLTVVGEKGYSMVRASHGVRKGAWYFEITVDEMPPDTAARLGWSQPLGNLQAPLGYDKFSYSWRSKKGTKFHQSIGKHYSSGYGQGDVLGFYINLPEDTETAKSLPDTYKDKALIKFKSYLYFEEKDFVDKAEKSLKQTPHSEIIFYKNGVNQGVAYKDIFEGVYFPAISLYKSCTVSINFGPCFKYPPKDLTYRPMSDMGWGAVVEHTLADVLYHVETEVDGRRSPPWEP

Compound: COCCc1ccc(OCC(O)CNC(C)C)cc1 (stereo not shown) [Metoprolol]
- Papp at 90 min, 10 μM ([1]; Replicate 1, Direction A‐B): 33.7 ×10⁻⁶ cm/s
- Papp at 90 min, 10 μM ([1]; Replicate 1, Direction B‐A): 34.7 ×10⁻⁶ cm/s
- Papp at 90 min, 10 μM ([1]; Replicate 2, Direction A‐B): 31.4 ×10⁻⁶ cm/s
- Papp at 90 min, 10 μM ([1]; Replicate 2, Direction B‐A): 33.3 ×10⁻⁶ cm/s
- Papp(B−A)/Papp(A−B) (efflux ratio) [2]: 1.1

Compound: Nc1ncnc2c1ncn2[C@@H]1O[C@H](CSCC[C@H](N)C(=O)O)[C@@H](O)[C@H]1O [SAH, S‐(5′‐adenosyl)‐ʟ‐homocysteine]
- IC50 [3]: 2.11 µM
- IC50 [4]: 7.39 µM

Compound: CC[C@H]1OC(=O)[C@H](C)[C@@H](O[C@H]2C[C@@](C)(OC)[C@@H](O)[C@H](C)O2)[C@H](C)[C@@H](O[C@@H]2O[C@H](C)C[C@H](N(C)C)[C@H]2O)[C@](C)(O)C[C@@H](C)C(=O)[C@H](C)[C@@H](O)[C@]1(C)O [Erythromycin]
- efflux ratio at 90 min, 10 μM ([1]; Caco-2): 62.9
- Papp at 90 min, 10 μM ([1]; Replicate 1, Direction A‐B): 0.3 ×10⁻⁶ cm/s
- Papp at 90 min, 10 μM ([1]; Replicate 1, Direction B‐A): 18.1 ×10⁻⁶ cm/s
- Papp at 90 min, 10 μM ([1]; Replicate 2, Direction A‐B): 0.2 ×10⁻⁶ cm/s
- Papp at 90 min, 10 μM ([1]; Replicate 2, Direction B‐A): 17.5 ×10⁻⁶ cm/s

Compound: CN1C(=O)[C@@]23C[C@]4([C@]56C[C@@]78SS[C@@](CO)(C(=O)N7[C@H]5Nc5ccccc56)N(C)C8=O)c5ccccc5N[C@@H]4N2C(=O)[C@]1(CO)SS3 [chaetocin]
- IC50 [5]: 3.98 µM
